Read-outs that look alike come from different tables or passages of the source.
Assays:
[1] = target: BRD4 (BD1+BD2) bromodomain (Homo sapiens (Human), UniProt O60885); assay: BRD4 binding inhibition (AlphaScreen, GST-BRD4 vs tetraacetylated histone H4 peptide)
How it was run: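 AlphaScreen read after 30 min dark incubation at room temperature with glutathione acceptor/streptavidin donor beads (10 μg/ml each). The beads were added to compound plus 100 nM biotin-H4 (K5,8,12,16-acetyl) peptide and 100 nM GST-BRD4 BD1+BD2 in pH 7.4 HEPES/Tween/BSA/DTT buffer.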

[2] = test system: acute myelogenous leukemia cells (MV-4-11 cells); assay: Cytotoxicity to acute myelogenous leukemia cells (MV-4-11 cells), CCK-8
[3] = GST-BRD4 (BD1+BD2) / biotinylated acetyl-histone H4 (Lys5,8,12,16) peptide, read-out: IC50, BRD4 binding inhibition
[4] = GST-BRD4 (BD1+BD2) vs biotinylated acetyl-histone H4 peptide, AlphaScreen, read-out: BRD4 IC50
[5] = Homo sapiens, MV4-11, 72 h, read-out: MV-4-11 Cytotoxicity IC50
[6] = Homo sapiens, MV4-11, 72 h, read-out: IC50, cytotoxicity against acute myelogenous leukemia cells

Structure (SMILES) | IC50 [1, 3] [nM] | IC50 [1, 4] [nM] | IC50 [2, 5] [nM] | IC50 [2, 6] [nM] | IC50 ([2]; read-out: MV-4-11 Cytotoxicity IC50, MV-4-11 cells, 72 hours, CCK-8) [nM]
CCc1nnc2c(NCCCCNC(=O)OC(C)C)nc3cc(OC)c(OC)cc3n12 [Example 596, [4-(1-ethyl-7,8-dimethoxy-[1,2,4]triazolo[4,3-a]quinoxaline-4-ylamino)-butyl]-carbamic acid isopropylester] | ≤ 50 | 19 | 510 |  | 
C#CCNc1cc2c(cc1OC)nc(NCCCCNC(=O)CC(C)C)c1nnc(C)n12 [Example 560] | ≤ 50 | 37 | 71 | ≤ 200 | 
Cc1nnc2c(NCCCCNC(=O)NC3CCCCC3)nc3cc(-c4nc5ccccc5n4C)ccc3n12 [Example 239, 1-cyclohexyl-3-{4-[1-methyl-7-(1-methyl-1H-benzoimidazole-2-yl)-[1,2,4]triazolo[4,3-a]quinoxaline-4-ylamino]-butyl}-urea] | ≤ 50 | 18 | 660 |  | 
Cc1nnc2c(NCCCCNC(=O)OC(C)(C)C)nc3ccccc3n12 [Example 1, [4-(1-methyl-[1,2,4]triazolo[4,3-a]quinoxaline-4-ylamino)-butyl]-carbamic acid-tert-butylester] |  | 74 | 980 |  | 
COc1cc2nc(NCCCCNC(=O)[C@@H](O)C(C)C)c3nnc(C)n3c2cc1C(F)(F)F [Example 479, 2-(S)-hydroxy-N-[4-(7-methoxy-1-methyl-8-trifluoromethyl-[1,2,4]triazolo[4,3-a]quinoxaline-4-ylamino)-butyl]-3-methyl-butyramide] | ≤ 10 | 5 | 240 |  | 
Cc1nnc2c(NCCCCNC(=O)[C@@H](O)C(C)C)nc3ccccc3n12 [Example 10, 2-(S)-hydroxy-N-[4-(1-methyl-[1,2,4]triazolo[4,3-a]quinoxaline-4-ylamino)-butyl]-3-methyl-butyramide] | ≤ 10 | 5 | 160 |  | 
Cc1nnc2c(NCCCCNC(=O)CC(C)C)nc3cc(OCC4CCCCO4)ccc3n12 (centres unmarked) [Example 343, 3-methyl-N-{4-[1-methyl-7-(tetrahydro-pyran-2-yl-methoxy)-[1,2,4]triazolo[4,3-a]quinoxaline-4-ylamino]-butyl}-butyramide] | ≤ 50 | 36 | 120 | ≤ 200 | 
Cc1nnc2c(NCCCCNC(=O)CC(C)C)nc3cc(NC(=S)NC(C)C)ccc3n12 [Example 256, N-{4-[7-(3-isopropyl-thioureido)-1-methyl-[1,2,4]triazolo[4,3-a]quinoxaline-4-ylamino]-butyl}-3-methyl-butyramide] |  |  | 84 | ≤ 200 | 
Cc1nnc2c(NCCCCNC(=O)CC(C)C)nc3cc(NC(=O)NC(C)C)ccc3n12 [Example 255, N-{4-[7-(3-isopropyl-ureido)-1-methyl-[1,2,4]triazolo[4,3-a]quinoxaline-4-ylamino]-butyl}-3-methyl-butyramide] |  |  | 93 | ≤ 200 | 
Cc1nnc2c(NCCCCNC(=O)C(C)(C)C)nc3cc(OC(F)(F)F)ccc3n12 [Example 271, 2,2-dimethyl-N-[4-(1-methyl-7-trifluoromethoxy-[1,2,4]triazolo[4,3-a]quinoxaline-4-ylamino)-butyl]-propionamide] |  |  | 880 |  | 
COc1cc2nc(NCCCCNC(=O)CC(C)C)c3nnc(C)n3c2cc1N(S(C)(=O)=O)S(C)(=O)=O [Example 566, N-[4-(8-dimethanesulfonyl-amino-7-methoxy-1-methyl-[1,2,4]triazolo[4,3-a]quinoxaline-4-ylamino)-butyl]-3-methyl-butyramide] |  |  |  |  | 550
COc1cc2c(cc1OCCN1CCOCC1)nc(NCCCCNC(=O)CC(C)C)c1nnc(C)n12 [Example 577, N-{4-[8-methoxy-1-methyl-7-(2-morpholine-4-yl-ethoxy)-[1,2,4]triazolo[4,3-a]quinoxaline-4-ylamino]-butyl}-3-methyl butyramide] |  |  | 87 | ≤ 200 | 
COCCOc1cc2c(cc1OC)nc(NCCCCN)c1nnc(C)n12 [Example 484, N^1-[7-methoxy-8-(2-methoxy-ethoxy)-1-methyl-[1,2,4]triazolo[4,3-a]quinoxaline-4-yl]-butane-1,4-diamine ditrifluoroacetic acid] |  |  | 460 |  | 
Cc1noc(C)c1-c1ccc2c(c1)nc(NCCCCN)c1nnc(C)n12 [Example 584, N^1-[7-(3,5-dimethyl-isoxazol-4-yl)-1-methyl-[1,2,4]triazolo[4,3-a]quinoxaline-4-yl]-butane-1,4-diamine ditrifluoroacetic acid] |  |  | 130 | ≤ 200 | 
COCCOc1cc2c(cc1OC)nc(NCCCCNC(=O)OC(C)(C)C)c1nnc(C)n12 [Example 483, {4-[7-methoxy-8-(2-methoxy-ethoxy)-1-methyl-[1,2,4]triazolo[4,3-a]quinoxaline-4-ylamino]-butyl}-carbamic acid-tert-butylester] |  |  | 460 |  | 
Cc1nnc2c(NCCCCNC(=O)C(C)(C)C)nc3ccc(OC(F)(F)F)cc3n12 [Example 265, 2,2-dimethyl-N-[4-(1-methyl-8-trifluoromethoxy-[1,2,4]triazolo[4,3-a]quinoxaline-4-ylamino)-butyl]-propionamide] |  |  | 680 |  | 
COc1cc2nc(NCCCCNC(=O)OC(C)(C)C)c3nnc(C)n3c2cc1F [Example 572, [4-(8-fluoro-7-methoxy 1-methyl-[1,2,4]triazolo[4,3-a]quinoxaline-4-ylamino)-butyl]-carbamic acid-tert-butylester] |  |  | 238 |  | 
Cc1nnc2c(NCCCCNC(=O)CC(C)C)nc3cc(OC(=O)N4CCOCC4)ccc3n12 [Example 351] |  |  | 290 |  | 
Cc1nnc2c(NCCCCNC(=O)OC(C)C)nc3cc(OC(C)C)ccc3n12 [Example 452, [4-(7-isopropoxy-1-methyl-[1,2,4]triazolo[4,3-a]quinoxaline-4-ylamino)-butyl]-carbamic acid isopropylester] |  |  | 320 |  | 
Cc1nnc2c(NCCCCNC(=O)[C@@H](NC(=O)CC(C)C)C(C)C)nc3cc(N4C[C@@H](C)O[C@@H](C)C4)ccc3n12 [Example 518, (S)-N-{4-[7-(2,6-dimethyl-morpholine-4-yl)-1-methyl-[1,2,4]triazolo[4,3-a]quinoxaline-4-ylamino]-butyl}-3-methyl-2-(3-methyl-butyrylamino)-butyramide] |  |  | 480 |  | 
Cc1nnc2c(NCCCCNC(=O)OC(C)(C)C)nc3cc(N4CCc5sccc5C4)ccc3n12 [Example 526, {4-[7-(6,7-dihydro-4H-thiano[3,2-c]pyridine-5-yl)-1-methyl-[1,2,4]triazolo[4,3-a]quinoxaline-4-ylamino]-butyl}-carbamic acid-tert-butylester] |  |  | 802 |  | 
CNc1ccc2c(c1)nc(NCCCCNC(=O)CC(C)C)c1nnc(C)n12 [Example 252, 3-methyl-N-[4-(1-methyl-7-methylamino-[1,2,4]triazolo[4,3-a]quinoxaline-4-ylamino)-butyl]-butyramide] |  |  | 254 |  | 
COc1ccc2c(c1)nc(NCCCCNC(=O)C1CC1)c1nnc(C)n12 [Example 282, cyclopropane; carboxylic acid-[4-(7-methoxy-1-methyl-[1,2,4]triazolo[4,3-a]quinoxaline-4-ylamino)-butyl]-amide] |  |  | 534 |  | 
CSc1ccc2c(c1)nc(NCCCCNC(=O)CC(C)C)c1nnc(C)n12 [Example 356, 3-methyl-N-[4-(1-methyl-7-methylsulfanyl-[1,2,4]triazolo[4,3-a]quinoxaline-4-ylamino)-butyl]-butyramide] |  |  | 143 | ≤ 200 | 
